Patent US20230145835A1, “Modulators of Alpha-4-beta-7 Integrin and MAdCAM” (48HD Biopharma Inc., priority 2021, published 2023)
Like-named read-outs stand apart in the source and are kept apart here. Numbered stars: 1 amine (or outer) side, 2 acyl side, 3 side chain; on linkers, the order of the positions; unused ones are H or OH. Bridge positions count the residues as written; N and C are the ends. Square brackets hold non-standard residues; d marks the D form. Peptide text beside a SMILES is read from it. X1 = O=C(C=NOCCCCCCOc1cc(C[*:2])cc(C[*:3])c1)[*:1]; Nle = CCCC[C@H](N)C(=O)O

Target: T1, rh-integrin α4β7/LPAM-1 (Homo sapiens, UniProt P13612+P26010)
T1 sequence (P13612 34-977 limits assumed): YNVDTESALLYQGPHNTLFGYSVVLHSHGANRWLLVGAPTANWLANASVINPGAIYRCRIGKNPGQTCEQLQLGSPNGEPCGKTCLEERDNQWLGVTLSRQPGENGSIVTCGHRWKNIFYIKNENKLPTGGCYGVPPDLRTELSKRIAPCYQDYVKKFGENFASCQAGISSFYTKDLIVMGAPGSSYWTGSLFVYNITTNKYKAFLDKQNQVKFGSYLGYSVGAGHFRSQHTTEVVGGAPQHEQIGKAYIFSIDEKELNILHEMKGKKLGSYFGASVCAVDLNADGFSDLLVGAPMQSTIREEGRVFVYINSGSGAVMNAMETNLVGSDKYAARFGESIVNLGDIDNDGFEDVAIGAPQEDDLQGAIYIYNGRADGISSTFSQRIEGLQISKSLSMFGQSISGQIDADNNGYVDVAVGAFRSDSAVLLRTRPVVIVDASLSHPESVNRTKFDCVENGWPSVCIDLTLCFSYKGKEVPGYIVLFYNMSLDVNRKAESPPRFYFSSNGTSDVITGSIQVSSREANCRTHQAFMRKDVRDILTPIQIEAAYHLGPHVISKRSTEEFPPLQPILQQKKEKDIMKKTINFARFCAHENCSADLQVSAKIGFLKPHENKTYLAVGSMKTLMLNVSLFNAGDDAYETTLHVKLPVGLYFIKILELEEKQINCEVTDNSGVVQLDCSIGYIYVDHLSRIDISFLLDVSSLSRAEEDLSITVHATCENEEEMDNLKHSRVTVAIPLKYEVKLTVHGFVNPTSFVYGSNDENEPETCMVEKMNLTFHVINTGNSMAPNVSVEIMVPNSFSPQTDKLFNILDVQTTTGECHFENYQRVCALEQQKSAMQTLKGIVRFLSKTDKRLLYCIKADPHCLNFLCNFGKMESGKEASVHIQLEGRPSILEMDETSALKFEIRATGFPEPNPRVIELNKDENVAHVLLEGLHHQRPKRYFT
T1 sequence (P26010 20-723 limits assumed): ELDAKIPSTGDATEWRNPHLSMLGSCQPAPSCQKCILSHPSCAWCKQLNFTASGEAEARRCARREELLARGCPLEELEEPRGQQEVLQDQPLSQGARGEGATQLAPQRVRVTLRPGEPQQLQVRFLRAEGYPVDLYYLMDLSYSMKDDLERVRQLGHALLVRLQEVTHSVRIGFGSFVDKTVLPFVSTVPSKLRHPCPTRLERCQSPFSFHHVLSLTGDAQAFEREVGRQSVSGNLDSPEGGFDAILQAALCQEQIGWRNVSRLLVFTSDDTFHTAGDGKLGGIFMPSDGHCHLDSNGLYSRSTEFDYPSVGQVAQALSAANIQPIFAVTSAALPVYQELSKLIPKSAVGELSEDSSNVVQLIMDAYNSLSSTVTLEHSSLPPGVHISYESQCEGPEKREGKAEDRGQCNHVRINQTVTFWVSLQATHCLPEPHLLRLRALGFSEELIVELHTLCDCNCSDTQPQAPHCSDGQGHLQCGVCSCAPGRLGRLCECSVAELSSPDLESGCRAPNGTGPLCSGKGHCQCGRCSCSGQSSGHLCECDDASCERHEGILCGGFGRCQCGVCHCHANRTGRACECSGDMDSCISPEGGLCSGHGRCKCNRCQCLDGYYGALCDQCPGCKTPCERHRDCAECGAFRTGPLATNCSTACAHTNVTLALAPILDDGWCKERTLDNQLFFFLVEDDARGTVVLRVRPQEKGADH
Test: α4β7-MadCAM Competition ELISA (Example 4)
Format: binding
Conditions: read-out: IC50
Experimental: After washing with wash buffer, 200 μL assay buffer was added to each well and incubated for one hour at 28° C. After another wash with wash buffer, 100 μL of a MAdCAM and peptide mixture in assay buffer was added to each well and incubated for one hour at 28° C., followed by washing with wash buffer.

[1] = Table 3 Representative compounds, inhibition of MAdCAM binding to coated α4β7
[2] = competition ELISA, 4 μg/mL α4β7 coated, MAdCAM and peptide mixture, 28° C.

| SMILES | IC50 [1] | IC50 [2] |
| --- | --- | --- |
| CC(C)C[C@@H]1NC(=O)[C@H](CO)NC(=O)[C@H](CCCNC(=N)N)NC(=O)[C@@H]2CSCC(=O)N[C@@H](CCCNC(=N)N)C(=O)N[C@@H](CSSC[C@@H](C(=O)N[C@@H](Cc3c[nH]c4ccccc34)C(=O)N[C@@H](CCC(N)=O)C(N)=O)NC(=O)[C@H](C(C)C)NC(=O)[C@@H](CC(=O)O)NC1=O)C(=O)N[C@@H](CO)C(=O)N[C@@H](CC(=O)O)C(=O)N[C@@H]([C@@H](C)O)C(=O)N[C@@H](CC(C)C)C(=O)N2 (racemic) [compound 87] | 71.3 µM |  |
| CCCC[C@@H]1NC(=O)[C@@H]2CCCN2C(=O)[C@@H]2CSCc3cc(cc(c3)OCCCCCCC(=O)NCC(=O)N[C@@H](CCCCN)C(=O)N2)CSC[C@@H](C(N)=O)NC(=O)[C@H](CCCCN)NC(=O)[C@H](C(C)C)NC(=O)[C@H](Cc2c[nH]c3ccccc23)NC(=O)[C@H]([C@@H](C)CC)NC(=O)[C@H](CC(=O)O)NC1=O (stereo in doubt) [compound 21, TSLC7- GKCP{Nle} DIWVKC] | 0.45 µM |  |
| CC[C@H](C)[C@@H]1NC(=O)[C@H](CC(=O)O)NC(=O)[C@H](CCSC)NC(=O)[C@@H]2CCCN2C(=O)C(NC(=O)[C@H](CCCNC(=N)N)NC(=O)[C@H](CO)NC(C)=O)CSSC[C@@H](C(=O)N[C@@H](CCCCNC(=O)COCC(=O)NCCCC[C@H](NC(=O)[C@@H]2CSSC[C@H](NC(=O)[C@H](CCCNC(=N)N)NC(=O)[C@H](CO)NC(C)=O)C(=O)N3CCC[C@H]3C(=O)N[C@@H](CCSC)C(=O)N[C@@H](CC(=O)O)C(=O)N[C@@H]([C@@H](C)CC)C(=O)N[C@@H](C)C(=O)NCC(=O)N[C@@H](CCC(=O)O)C(=O)N2)C(N)=O)C(N)=O)NC(=O)[C@H](CCC(=O)O)NC(=O)CNC(=O)[C@H](C)NC1=O (stereo in doubt) [compound 32] | 0.729 µM |  |
| CCCC[C@@H]1NC(=O)[C@@H]2CCCN2C(=O)[C@@H]2CSCc3cc(cc(c3)OCCCCCCC(=O)NCC(=O)N[C@@H](C)C(=O)N2)CSC[C@@H](C(N)=O)NC(=O)[C@H](CCC(=O)O)NC(=O)[C@H](CCC(N)=O)NC(=O)[C@H](Cc2c[nH]c3ccccc23)NC(=O)[C@H](C(C)C)NC(=O)[C@H](CC(=O)O)NC1=O (stereo in doubt) [compound 33, TSLC7- GACP{Nle} DVWQEC] | 0.74 µM |  |
| CC(C)C[C@@H]1NC(=O)[C@@H]2CCCN2C(=O)[C@@H]2CSCc3cc(cc(c3)OCCCCCCO/N=C/C(=O)N[C@@H](C)C(=O)N2)CSC[C@@H](C(N)=O)NC(=O)[C@H](CCC(=O)O)NC(=O)[C@H](Cc2ccc(O)cc2)NC(=O)[C@@H]2CCCN2C(=O)C([C@@H](C)O)NC(=O)[C@H](CC(=O)O)NC1=O (stereo in doubt) [compound 43, TSL6- SACPLDTPYEC] | 1.45 µM |  |
| CC(C)C[C@@H]1NC(=O)[C@H](C)NC(=O)[C@@H]2CSCc3cc(cc(c3)OCCCCCCO/N=C/C(=O)N[C@@H](CCCCN)C(=O)N2)CSC[C@@H](C(N)=O)NC(=O)[C@H](CCC(=O)O)NC(=O)[C@H](Cc2ccc(O)cc2)NC(=O)[C@@H]2CCCN2C(=O)[C@H]([C@@H](C)O)NC(=O)[C@H](CC(=O)O)NC1=O (stereo in doubt) [compound 53, TSL6- SKCALDTPYEC] | 2.7 µM |  |
| CC(C)C[C@@H]1NC(=O)[C@H](Cc2ccccc2)NC(=O)[C@@H]2CSCc3cc(cc(c3)OCCCCCCON=CC(=O)N[C@@H]([C@@H](C)O)C(=O)N2)CSC[C@@H](C(=O)O)NC(=O)[C@H](CC(N)=O)NC(=O)[C@H](CCCCN)NC(=O)[C@H](C(C)C)NC(=O)[C@H](CC(=O)O)NC1=O [SEQ ID NO: 10] (TCFLDVKNC-OH; linker N-2-9 via X1) |  | 311 µM |
| N=C(N)NCCC[C@@H]1NC(=O)CNC(=O)[C@H](Cc2ccc(O)cc2)NC(=O)[C@H](Cc2c[nH]c3ccccc23)NC(=O)[C@H](Cc2c[nH]cn2)NC(=O)[C@@H]2CSCc3cc(cc(c3)OCCCCCCON=CC(=O)N[C@@H](CCC(N)=O)C(=O)N2)CSC[C@@H](C(=O)O)NC(=O)[C@H](CO)NC1=O [SEQ ID NO: 19] (QCHWYGRSC-OH; linker N-2-9 via X1) |  | > 500 µM |
| C[C@@H]1NC(=O)C=NOCCCCCCOc2cc3cc(c2)CSC[C@H](NC1=O)C(=O)N[C@@H](Cc1ccc(O)cc1)C(=O)N1CCC[C@H]1C(=O)N[C@@H](CC(=O)O)C(=O)N[C@@H]([C@@H](C)O)C(=O)N[C@@H](Cc1ccc(O)cc1)C(=O)N[C@@H](Cc1c[nH]cn1)C(=O)N[C@H](C(=O)O)CSC3 [SEQ ID NO: 39] (ACYPDTYHC-OH; linker N-2-9 via X1) |  | 111 µM |
| CC[C@H](C)[C@@H]1NC(=O)[C@H](C)NC(=O)[C@H](CCSC)NC(=O)[C@@H]2CCCN2C(=O)[C@@H]2CSCc3cc(cc(c3)OCCCCCCON=CC(=O)N[C@@H](CCC(N)=O)C(=O)N2)CSC[C@@H](C(=O)O)NC(=O)[C@H]([C@@H](C)O)NC(=O)[C@@H]2CCCN2C1=O [SEQ ID NO: 49] (QCPMAIPTC-OH; linker N-2-9 via X1) |  | > 500 µM |
| CC(C)C[C@@H]1NC(=O)[C@@H]2CCCN2C(=O)[C@@H]2CSCc3cc(cc(c3)OCCCCCCON=CC(=O)N[C@@H](CCCCN)C(=O)N2)CSC[C@@H](C(=O)O)NC(=O)[C@H](CO)NC(=O)[C@@H]2CCCN2C(=O)[C@H](C(C)C)NC(=O)[C@H](C)NC1=O [SEQ ID NO: 56] (KCPLAVPSC-OH; linker N-2-9 via X1) |  | 55.9 µM |
| CC(C)C[C@@H]1NC(=O)[C@@H]2CCCN2C(=O)[C@@H]2CSCc3cc(cc(c3)OCCCCCCON=CC(=O)N[C@@H](CCCCN)C(=O)N2)CSC[C@@H](C(=O)O)NC(=O)[C@H](CO)NC(=O)[C@@H]2CCCN2C(=O)[C@H](C)NC(=O)[C@H](CC(=O)O)NC1=O [SEQ ID NO: 57] (KCPLDAPSC-OH; linker N-2-9 via X1) |  | 1.74 µM |
| C[C@@H]1NC(=O)[C@@H]2CCCN2C(=O)[C@@H]2CSCc3cc(cc(c3)OCCCCCCON=CC(=O)N[C@@H](CCCCN)C(=O)N2)CSC[C@@H](C(=O)O)NC(=O)[C@H](CCC(=O)O)NC(=O)[C@H](Cc2ccc(O)cc2)NC(=O)[C@@H]2CCCN2C(=O)[C@H]([C@@H](C)O)NC(=O)[C@H](CC(=O)O)NC1=O [SEQ ID NO: 71] (KCPADTPYEC-OH; linker N-2-10 via X1) |  | > 500 µM |
| CC(C)C[C@@H]1NC(=O)[C@@H]2CCCN2C(=O)[C@@H]2CSCc3cc(cc(c3)OCCCCCCON=CC(=O)N[C@@H](CCCCN)C(=O)N2)CSC[C@@H](C(=O)O)NC(=O)[C@H](CCC(=O)O)NC(=O)[C@H](Cc2ccc(O)cc2)NC(=O)[C@@H]2CCCN2C(=O)[C@H]([C@@H](C)O)NC(=O)[C@H](C)NC1=O [SEQ ID NO: 72] (KCPLATPYEC-OH; linker N-2-10 via X1) |  | > 500 µM |
| CC[C@H](C)[C@@H]1NC(=O)[C@H](CC(=O)O)NC(=O)[C@H](CC(C)C)NC(=O)[C@H](CCCCN)NC(=O)[C@@H]2CSCc3cc(cc(c3)OCCCCCCON=CC(=O)N[C@@H](Cc3c[nH]cn3)C(=O)N2)CSC[C@@H](C(=O)O)NC(=O)[C@H](C(C)C)NC(=O)[C@H](Cc2c[nH]c3ccccc23)NC1=O [SEQ ID NO: 73] (HCKLDIWVC-OH; linker N-2-9 via X1) |  | > 500 µM |
| CCCC[C@@H]1NC(=O)[C@H](CO)NC(=O)[C@H](CCCNC(=N)N)NC(=O)[C@@H]2CSCC(=O)N[C@@H](CCCNC(=N)N)C(=O)N[C@@H](CSSC[C@@H](C(=O)N[C@@H](Cc3c[nH]c4ccccc34)C(=O)N[C@@H](CCC(N)=O)C(N)=O)NC(=O)[C@H]([C@@H](C)CC)NC(=O)[C@H](CC(=O)O)NC1=O)C(=O)N[C@@H](CO)C(=O)N[C@@H](CCCC)C(=O)N[C@@H](CC(=O)O)C(=O)N[C@@H]([C@@H](C)CC)C(=O)N2 [SEQ ID NO: 76] ({CH2CO}-RCS[Nle]DICRS[Nle]DICWQ-NH2; disulfide 2-13; thioether N-7) |  | 263 µM |
